Reference: article PMC10714400, “Antimicrobial Peptide–Peptoid Hybrids with and without Membrane Disruption” (ACS Infectious Diseases, 2023)
Where a SMILES comes first, the peptide text is derived from it. [ ]: non-standard residue; d: D form. Nleu = CC(C)CNCC(=O)O; Nlys = NCCCCNCC(=O)O

Assays:
P. aeruginosa PAO1 [1] = experiment: Time–kill assay; assay type: cell-based, Pseudomonas aeruginosa
Text: (§1) Figure 1 Killing profile of selected compounds on bacteria a) against E. coli W3110 measured in full MH at pH 7.4, b) against P. aeruginosa PAO1 in full MH at pH 7.4, c) against E. coli W3110 in diluted MH at pH 8.5, and d) against P. aeruginosa PAO1 in dilute MH at pH 8.5. The assay was repeated twice in triplicate, and the data represent the mean ± SD, n = 6.

E. coli W3110 = experiment: Time–kill assay; assay type: cell-based, Escherichia coli
Text: as §1

P. aeruginosa PAO1 [2] = experiment: DiSC3(5) inner membrane depolarization assay; assay type: cell-based, Pseudomonas aeruginosa; conditions: P. aeruginosa PAO1, 2 μM DiSC3(5)
Description: (§2) Figure 5 Interactions of peptide–peptoid hybrids with bacterial outer and inner membranes of P. aeruginosa. (a, b) NPN outer membrane permeability assay. P. aeruginosa PAO1 bacteria were treated with increasing compound concentrations in the presence of 10 μM NPN. The fluorescence intensity (λex = 340 nm, λem = 415 nm) was measured within 5 min. Data represent the mean ± SD, n = 3. (c, d) DiSC3(5) inner membrane depolarization assay. P. aeruginosa PAO1 cells were treated with increasing compound concentrations in the presence of 2 μM DiSC3(5). The fluorescence intensity (λex = 610 nm, λem = 660 nm) was measured within 5 min after treatment, and the data represent mean ± SD, n = 3.
A single colony of P. aeruginosa PAO1 and E. coli W3110 was grown overnight with shaking (150 rpm) in LB broth (5 mL) at 37 °C. A 100 μL portion of the overnight culture was regrown in 10 mL of LB broth with shaking (200 rpm) to the exponential phase (OD600 = 1, corresponding to 10^9 CFU/mL). Bacteria were washed once with HEPES buffer (5 mM HEPES, 5 mM glucose, pH 7.4) and diluted to an OD600 = 0.5. Stock solution of 10 mM of 3,3′-dipropylthiadicarbocyanine iodide (DiSC3(5), purchased from Sigma) was prepared in DMSO. Stock solutions of 2 mg/mL of the compounds were prepared in sterilized milli-Q water and diluted to the beginning concentration of 128 μg/mL in 200 μL of HEPES buffer containing 4 μM of the fluorescent probe DiSC3(5). The diluted samples were added to the first well of 96-well plates (black wells, flat bottom, BRAND GmbH Wertheim, Germany) and diluted serially by 1/2. 100 μL of the bacterial suspension in HEPES buffer (without fluorophore) was added to each well. In this case, the final OD of bacteria was 0.25, the final concentration of peptide in the first column was 64 μg/mL, and DiSC3(5) was 2 μM. The control wells are buffer containing DiSC3(5) and bacterial suspension containing DiSC3(5) in HEPES buffer. The plate was measured with a Tecan instrument Infinite M1000 within 5 min. […] The assay was measured in triplicate and repeated at least two times.[65],[75]

P. aeruginosa PAO1 [3] = experiment: NPN outer membrane permeability assay; assay type: cell-based, Pseudomonas aeruginosa
Description: as §2
A single colony of P. aeruginosa PAO1 and E. coli W3110 was grown overnight while being shaken (150 rpm) in LB-broth (5 mL) at 37 °C. 100 μL of the overnight culture was regrown in 10 mL of LB broth with shaking (200 rpm) to the exponential phase (OD600 = 1, corresponding to 10^9 CFU/mL). Bacteria were washed three times with HEPES buffer (5 mM HEPES, 5 mM glucose, pH 7.4), but not diluted yet to their final concentration. 200 μL of peptide samples was added to the first well of 96-well plates (black wells, flat bottom, BRAND GmbH Wertheim, Germany), 100 μL of HEPES/glucose buffer with 10 μM N-phenyl-1-naphthylamine (NPN, purchased from Acros Organics) was added in all the wells, and the compounds were diluted serially by 1/2 (add a control with a final volume of 200 μL with 10 μM NPN in buffer only). Ca. 10 min before the measurement and the final dilution of the bacteria, the plates and the 10 μM NPN in HEPES/glucose buffer (for bacteria dilution) were incubated at 37 °C (prior to the dilution of the bacteria with buffer containing NPN 10 μM). Later, the bacteria were diluted to OD600 = 0.5 with the NPN in HEPES/glucose buffer. 100 μL of the bacterial suspension was added to each well. In this case, the final OD of bacteria was 0.25, the final concentration of the desired compound 64 μg/mL, and NPN 10 μM. The control wells are buffer containing NPN (10 μM, 200 μL) and bacterial suspension containing NPN in HEPES buffer. The plate was measured with a Tecan instrument Infinite M1000 within 5 min. The plate was enabled to shake for 5 s before measurement. The excitation wavelength used was 340 ± 5 nm, and emission wavelength was 415 ± 5 nm. The assay was repeated at least three times.

A549 cells = experiment: Cell viability assay by Alamar blue; assay type: cell-based; conditions: CSV; read-out: Toxicity on A549 lung cancern cells
Description: The data are represented as the mean value ± SD, n = 3. […] (c) Vesicle leakage assay for a selection of compounds. Lipid vesicles made of EYPG or EYPC were suspended in a buffer (10 mM TRIS, 107 mM NaCl, pH 7.4). After 45 s, the indicated compound was added to reach the desired concentration. After 240 s, 30 μL of 1.2% TritonX-100 was added for full fluorescein release. […] See Supporting Information for the full curves, all of the data, and procedures.
HEK293 cells were cultured and maintained in DMEM high glucose (Dulbecco’s modified Eagle medium, Sigma Aldrich) medium supplemented with 10% FBS (Sigma Aldrich) and 1% penicillin/streptomycin. A549 cells were cultured and maintained in RPMI-1640 medium (Sigma Aldrich), supplemented with 10% FBS (Sigma Aldrich) and 1% penicillin/streptomycin. The cells were handled and subcultured according to the manufacturer instructions. Cells were incubated in a humidified incubator at 37 °C in the presence of 5% CO2.
Assays on HEK293, A549 cells were performed as described earlier.[74] […]

[4] = P. aeruginosa PAO1, dilute MH at pH 8.5
[5] = E. coli W3110, diluted MH at pH 8.5

Compound | Inner membrane depolarization (DiSC3(5)) (P. aeruginosa PAO1 [2]) | Outer membrane permeabilization (NPN) (P. aeruginosa PAO1 [3]; not told) | IC50 (A549 cells) [µM] | other results
CC(C)CN(CC(N)=O)C(=O)CN(CC(C)C)C(=O)CN(CC(C)C)C(=O)CN(CCCCN)C(=O)CN(CC(C)C)C(=O)CN(CC(C)C)C(=O)CN(CCCCN)C(=O)CN(CC(C)C)C(=O)CN(CC(C)C)C(=O)CN(CCCCN)C(=O)CNCCCCN [EB11, kkllkllklll] (H-[Nlys][Nlys][Nleu][Nleu][Nlys][Nleu][Nleu][Nlys][Nleu][Nleu][Nleu]-NH2) | partly depolarized the inner membrane | – | – | Time–kill, killing profile (P. aeruginosa PAO1 [1]; [4]): killed P. aeruginosa, however at a rather slow rate; Time–kill, killing profile (E. coli W3110; [5]): Bacteria could still be detected after 6 h; Outer membrane permeabilization (NPN) (P. aeruginosa PAO1 [3]; P. aeruginosa PAO1, 10 μM NPN): significant outer membrane permeabilization
CC(C)C[C@H](NC(=O)[C@H](CC(C)C)NC(=O)[C@H](CC(C)C)NC(=O)[C@H](CCCCN)NC(=O)[C@H](CC(C)C)NC(=O)[C@H](CC(C)C)NC(=O)CN(CCCCN)C(=O)CN(CC(C)C)C(=O)CN(CC(C)C)C(=O)CN(CCCCN)C(=O)CNCCCCN)C(N)=O [EB5, kkllkLLKLLL] (H-[Nlys][Nlys][Nleu][Nleu][Nlys]LLKLLL-NH2) | – | permeabilized the outer membrane | – | –
CC(C)C[C@H](NC(=O)[C@H](CC(C)C)NC(=O)[C@H](CC(C)C)NC(=O)[C@@H](CCCCN)NC(=O)[C@H](CC(C)C)NC(=O)[C@H](CC(C)C)NC(=O)[C@@H](CCCCN)NC(=O)[C@H](CC(C)C)NC(=O)[C@H](CC(C)C)NC(=O)[C@@H](CCCCN)NC(=O)[C@H](N)CCCCN)C(N)=O [ln69, kkLLkLLkLLL, reference compound] (H-[dK][dK]LL[dK]LL[dK]LLL-NH2) | – | – | 21 ± 3 | –
CC(C)C[C@H](NC(=O)[C@H](CCCCN)NC(=O)CNCCCCN)C(=O)N[C@@H](CC(C)C)C(=O)N[C@@H](CCCCN)C(=O)N[C@@H](CC(C)C)C(=O)N[C@@H](CC(C)C)C(=O)N[C@@H](CCCCN)C(=O)N[C@@H](CC(C)C)C(=O)N[C@@H](CC(C)C)C(=O)N(CC(N)=O)CC(C)C [EB1] (H-[Nlys]KLLKLLKLL[Nleu]-NH2; N-terminus assumed) | – | – | 69 ± 2 | –
H-KKLLKLLKLLL-NH2 [ln65, reference compound] | – | – | 20 ± 1 | –
CC(C)C[C@H](NC(=O)[C@H](CC(C)C)NC(=O)[C@H](CC(C)C)NC(=O)[C@H](CCCCN)NC(=O)[C@H](CC(C)C)NC(=O)[C@H](CC(C)C)NC(=O)CN(CCCCN)C(=O)[C@H](CC(C)C)NC(=O)[C@H](CC(C)C)NC(=O)CN(CCCCN)C(=O)CNCCCCN)C(N)=O [EB6, kkLLkLLKLLL] (H-[Nlys][Nlys]LL[Nlys]LLKLLL-NH2) | strongly depolarized the inner membrane | permeabilized the outer membrane | 19 ± 1 | Time–kill, killing profile (P. aeruginosa PAO1 [1]; P. aeruginosa PAO1, full MH at pH 7.4): completely killed; Time–kill, killing profile (E. coli W3110; E. coli W3110, full MH at pH 7.4): completely killed
CC(C)C[C@H](NC(=O)CN(CC(C)C)C(=O)[C@H](CC(C)C)NC(=O)CN(CCCCN)C(=O)[C@H](CC(C)C)NC(=O)CN(CC(C)C)C(=O)[C@H](CCCCN)NC(=O)CN(CC(C)C)C(=O)[C@H](CC(C)C)NC(=O)CN(CCCCN)C(=O)[C@@H](N)CCCCN)C(N)=O [EB9, KkLlKlLkLlL] (H-K[Nlys]L[Nleu]K[Nleu]L[Nlys]L[Nleu]L-NH2) | partly depolarized the inner membrane | significant outer membrane permeabilization | – | Time–kill, killing profile (P. aeruginosa PAO1 [1]; [4]): killed P. aeruginosa, however at a rather slow rate; Time–kill, killing profile (E. coli W3110; [5]): Bacteria could still be detected after 6 h
